# Values joined by “and” are separate entries in the source; they are usually repeats but may differ in a detail not shown here. Identical values can stand only once.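 Five concentrations, 48 hours, 96-well plates. Abbreviation: GI50, concentration required for 50% inhibition of growth. TGI is the concentration that stops growth completely.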
# How the values were obtained:
# Assay in all cases: NCI tumour cell line growth inhibition, 48 h
# A498 renal = system: A498 renal
# SK-MEL-28 melanoma = system: SK-MEL-28 melanoma
# SF-268 CNS = system: SF-268 CNS
# SF-295 CNS = system: SF-295 CNS
# K-562 leukemia = system: K-562 leukemia
# NCI/ADR-RES ovarian = system: NCI/ADR-RES ovarian
# HCT-116 colon = system: HCT-116 colon
# SF-539 CNS = system: SF-539 CNS
# A549 NSCLC = system: A549 NSCLC
# ACHN renal = system: ACHN renal
SMILES,GI50 (A498 renal),TGI (A498 renal),GI50 (SK-MEL-28 melanoma),TGI (SK-MEL-28 melanoma),GI50 (SF-268 CNS),TGI (SF-268 CNS),GI50 (SF-295 CNS) [µM],TGI (SF-295 CNS),GI50 (K-562 leukemia),TGI (K-562 leukemia),GI50 (NCI/ADR-RES ovarian),TGI (NCI/ADR-RES ovarian),GI50 (HCT-116 colon),TGI (HCT-116 colon),GI50 (SF-539 CNS),TGI (SF-539 CNS),GI50 (A549 NSCLC),TGI (A549 NSCLC),GI50 (ACHN renal),TGI (ACHN renal)
O=C(O)c1ccc2c(c1)CCCC(c1ccc(Cl)cc1Cl)=C2c1ccc(O[C@H]2CCN(CCCF)C2)cc1,11.5 µM,24.6 µM,11.5 µM,25.1 µM,12.1 µM,28.5 µM,7.86,20.5 µM,8.05 µM,23.1 µM,13 µM,27.4 µM,7.98 µM,21.7 µM,14.1 µM,27.5 µM,6.7 µM,24.1 µM,11.7 µM,24.3 µM
COC(=O)c1nc(Cl)nc(Cl)c1Cl,,,,56.9 µM,,> 100 µM,,> 100 µM,,31.9 µM,,> 100 µM,,33.2 µM,,75.3 µM,,> 100 µM,,27.7 µM
COc1ccc(-c2ccc(-c3ccc(C(=N)N)cn3)o2)cc1,12.8 µM,26.3 µM,8.23 µM,20.9 µM,11.2 µM,25.3 µM,,,3.97 µM,13.5 µM,14.1 µM,30.7 µM,3.26 µM,12.9 µM,4.74 µM,17.8 µM,5.1 µM,18.7 µM,6.56 µM,19.6 µM
OCCNc1ncnc2c1ncn2Cc1cccc(COc2cccc(OCc3cccc(Cn4cnc5c(NCCO)ncnc54)c3)c2)c1,14.9 µM,28.9 µM,14.6 µM,28.4 µM,16.4 µM,32.7 µM,13,31.8 µM,8.01 µM,35.8 µM,> 100 µM,> 100 µM,10.2 µM,22.3 µM,11.5 µM,25.4 µM,24.9 µM,50.7 µM,20.7 µM,43.2 µM
Cc1cc(Cl)ccc1Nc1nc(C(F)(F)F)ccc1C(=O)N/N=C/c1ccc([N+](=O)[O-])cc1,1.41 µM,7.1 µM,1.22 µM,,0.86 µM,5.45 µM,1.55,5.71 µM,1.43 µM,> 24.8 µM,1.98 µM,> 32.5 µM,1.85 µM,> 23.9 µM,2.65 µM,14.4 µM,1.07 µM,5.54 µM,1.08 µM,5.14 µM
COc1ccc2[nH]c(O)c(C(=Nc3ccc(N(C)C(=O)CN4CCN(C)CC4)cc3)c3ccccc3)c2c1,1.64 µM,3.45 µM,2.11 µM,6.12 µM,2.1 µM,7.55 µM,4.65,15.8 µM,0.609 µM,13.8 µM,11.1 µM,29.7 µM,0.562 µM,8.37 µM,1.04 µM,2.27 µM,2.73 µM,14.1 µM,2.54 µM,10.8 µM
CCOc1cccc(/C=N/NC(=O)C(=O)Nc2cccc(C(F)(F)F)c2)c1O,8.85 µM,76.2 µM,5.51 µM,> 100 µM,1.24 µM,97 µM,0.372,7.97 µM,2 µM,> 100 µM,2.02 µM,37.1 µM,1.02 µM,> 100 µM,2.18 µM,11.2 µM,2.04 µM,> 100 µM,1.03 µM,25.3 µM
CCC[n+]1cc2cc(OC)c(OC)cc2c2c1-c1cc3c(cc1C2)OCO3,17.6 µM,50.9 µM,3.03 µM,10.6 µM,0.568 µM,5.84 µM,8.1,26.6 µM,3.03 µM,> 20.5 µM,35.2 µM,> 100 µM,3.39 µM,23.6 µM,0.992 µM,6.34 µM,18.3 µM,35.5 µM,9.45 µM,36.7 µM
C=C1C(=O)O[C@H]2[C@H]1CC/C(COC(=O)c1cc3cc(Cl)ccc3[nH]1)=C\CC[C@@]1(C)O[C@@H]21,2.65 µM,9.17 µM,1.58 µM,3.1 µM,1.44 µM,2.86 µM,3.18,16.5 µM,1.14 µM,4.14 µM,1.45 µM,3.78 µM,0.707 µM,2.06 µM,1.44 µM,2.92 µM,1.69 µM,3.31 µM,1.35 µM,2.75 µM
Cn1c2c(c3ccc(Cl)c(Cl)c31)C(C#N)C1(CCNCC1)NC2=O (stereo unspecified),1.24 µM,2.95 µM,0.841 µM,2.37 µM,1.77 µM,4.89 µM,2.46,8.1 µM,1.47 µM,2.89 µM,3.72 µM,12.2 µM,1.39 µM,2.92 µM,2.03 µM,6.34 µM,2.42 µM,7.89 µM,1.82 µM,5.79 µM
C=CC(=O)Nc1cc2c(Nc3ccc(F)c(Cl)c3)ncnc2cc1OCCCN1CCOCC1,0.357 µM and 0.681 µM,2.51 µM and 5.15 µM,1.67 µM and > 6.85 µM,3.21 µM and > 10 µM,1.77 µM and 3.47 µM,5.13 µM and > 10 µM,4.12,17.4 µM and > 10 µM,1.91 µM and 2.84 µM,14.5 µM and > 10 µM,1.71 µM and 2.36 µM,8.79 µM and > 10 µM,1.58 µM and 2.35 µM,3 µM and > 5.9 µM,1.58 µM and 3.89 µM,3.5 µM and > 10 µM,2.37 µM and 5.1 µM,17 µM and > 10 µM,< 0.01 µM and 0.0448 µM,2.11 µM and > 10 µM
COc1ccc(C2=NN(C=O)C(c3cccc(Nc4ccnc5cc(Cl)ccc45)c3)C2)cc1 (stereo unspecified),1.35 µM,9.26 µM,8.12 µM,25.3 µM,4.8 µM,88.7 µM,1.24,23 µM,0.511 µM,11.3 µM,1.66 µM,31.7 µM,1.84 µM,6.02 µM,2.34 µM,7.41 µM,4.63 µM,> 100 µM,4.59 µM,62.7 µM

# From PubChem BioAssay (NCI)
